{"source": "patent US4690823A", "about": "“Ibuprofen-containing soft gelatin capsules and process for preparing same” (Dolorgiet Beteiligungs-GmbH, priority 1984, dated 1987)", "experiment": "Precipitation of ibuprofen from solution on contact with aqueous medium / artificial gastric juice or on cooling", "format": "physicochemical", "conditions": "addition of small amounts of water, or aqueous medium such as artificial gastric juice", "description": "It is an object of the present invention to provide a medicament that can be readily taken that contains an active amount of ibuprofen in a carrier, that is simple to prepare and that will quickly display a high activity. […] When such a solution, upon oral administration, gets into the stomach, then the aqueous content of the stomach causes the ibuprofen to be precipitated so that it will be barred from a quick resorption. […] In addition, these solutions may be incorporated in soft gelatin capsules in a per se known manner. The latter dosage form has an advantage over all other previously known dosage forms for ibuprofen that upon intake the active ingredient is quickly resorbed. To this effect it is not necessary that, subsequent to synthesis, the active ingredient is subjected to expensive galenic processing measures. […] In order to dissolve ibuprofen in the solvents according to the invention, the solvents are heated at 45° C. to 65° C., since only at these temperatures the dissolution will take place sufficiently fast. Upon cooling to room temperature, no reprecipitation occurs. […] It is readily possible that 40 parts by weight are additionally suspended in said solutions at room temperature and thereafter incorporated in soft gelatin capsules. […]"}
{"compound": "CC(C)Cc1ccc(C(C)C(=O)O)cc1", "note": "(stereo not shown) [Ibuprofen, 2-(4-isobutylphenyl)propionic acid]", "values": [{"measurement": "precipitation on contact with aqueous medium (in words)", "result": "will immediately precipitate upon the addition of small amounts of water"}]}
